Results reported in ChEMBL document CHEMBL1147913, “Na+-glucose cotransporter (SGLT) inhibitory flavonoids from the roots of Sophora flavescens” (Bioorg Med Chem, 2007).

Columns and labels:
[1] = target: T1, Sodium/glucose cotransporter 1 (Homo sapiens) (UniProt P13866); assay: Inhibition of human SGLT1 expressed in COS1 cells assessed as [14C]methyl-alpha-D-glucopyranoside uptake at 50 uM; assay type: cell-based; conditions: COS-1
T1 sequence (whole entry): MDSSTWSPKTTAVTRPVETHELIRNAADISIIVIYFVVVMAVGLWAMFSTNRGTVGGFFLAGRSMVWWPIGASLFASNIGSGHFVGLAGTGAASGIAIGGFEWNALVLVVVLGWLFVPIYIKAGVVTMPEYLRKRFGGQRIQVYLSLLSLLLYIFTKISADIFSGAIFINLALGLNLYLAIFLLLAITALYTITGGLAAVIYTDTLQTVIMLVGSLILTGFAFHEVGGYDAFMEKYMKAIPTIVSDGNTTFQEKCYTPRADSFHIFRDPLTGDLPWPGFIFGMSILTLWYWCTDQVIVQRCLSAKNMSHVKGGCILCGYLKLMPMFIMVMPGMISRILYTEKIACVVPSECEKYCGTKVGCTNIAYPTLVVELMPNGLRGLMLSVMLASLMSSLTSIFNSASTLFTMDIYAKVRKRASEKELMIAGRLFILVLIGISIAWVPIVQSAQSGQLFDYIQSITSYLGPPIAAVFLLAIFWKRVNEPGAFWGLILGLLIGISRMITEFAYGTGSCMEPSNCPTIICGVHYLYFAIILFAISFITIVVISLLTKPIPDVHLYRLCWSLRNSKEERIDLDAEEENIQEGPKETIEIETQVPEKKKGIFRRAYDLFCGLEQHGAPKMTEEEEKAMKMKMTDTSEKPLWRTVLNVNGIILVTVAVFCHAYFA

[2] = target: T2, Sodium/glucose cotransporter 2 (Homo sapiens) (UniProt P31639); assay: Inhibition of human SGLT2 expressed in COS1 cells assessed as [14C]methyl-alpha-D-glucopyranoside uptake at 50 uM; assay type: cell-based; conditions: COS-1
T2 sequence (whole entry): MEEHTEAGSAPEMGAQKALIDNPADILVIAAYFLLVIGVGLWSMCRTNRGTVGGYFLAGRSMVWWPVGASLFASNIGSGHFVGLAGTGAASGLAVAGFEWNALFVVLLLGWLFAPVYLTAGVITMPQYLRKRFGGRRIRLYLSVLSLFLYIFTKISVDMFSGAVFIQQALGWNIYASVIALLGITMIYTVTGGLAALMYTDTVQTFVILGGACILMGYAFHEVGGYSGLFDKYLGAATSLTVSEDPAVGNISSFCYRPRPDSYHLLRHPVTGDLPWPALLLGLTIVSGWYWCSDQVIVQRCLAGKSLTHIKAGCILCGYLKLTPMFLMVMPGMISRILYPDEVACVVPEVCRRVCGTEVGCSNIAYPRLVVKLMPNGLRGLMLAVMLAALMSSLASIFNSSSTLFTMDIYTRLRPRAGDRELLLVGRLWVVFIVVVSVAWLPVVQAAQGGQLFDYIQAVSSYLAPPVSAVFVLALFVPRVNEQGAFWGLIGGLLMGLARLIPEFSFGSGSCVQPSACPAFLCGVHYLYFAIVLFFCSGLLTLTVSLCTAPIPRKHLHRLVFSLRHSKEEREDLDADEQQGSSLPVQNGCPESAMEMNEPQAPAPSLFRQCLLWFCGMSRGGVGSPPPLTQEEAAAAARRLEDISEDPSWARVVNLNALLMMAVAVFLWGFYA

[3] = target: T3, Sodium/glucose cotransporter 2 (Homo sapiens, UniProt P31639); assay: Inhibition of human SGLT2 expressed in COS1 cells assessed as [14C]methyl-alpha-D-glucopyranoside uptake; assay type: cell-based, COS-1
T3 sequence (P31639 whole entry): T2 sequence (whole entry)

inhibition [1] [%]	inhibition [2] [%]	IC50 [3] [µM]	Compound
99.2	100	4.1	C=C(C)[C@H](CC=C(C)C)Cc1c(O)cc(O)c2c1O[C@H](c1ccc(O)cc1O)CC2=O [SOPHORAFLAVANONE G]
98.8	99.7	1.7	C=C(C)C(CC=C(C)C)Cc1c(O)cc(OC)c2c1O[C@H](c1ccc(O)cc1O)CC2=O (stereo partly drawn) [KURARINONE]
< 25	75.4	–	COc1ccc(-c2coc3cc(O)ccc3c2=O)cc1
< 25	< 25	–	COc1ccc2c(c1)OC[C@H]1c3cc4c(cc3O[C@@H]21)OCO4
< 25	66.5	–	Oc1ccc2c(c1)OC[C@H]1c3cc4c(cc3O[C@@H]21)OCO4
29.7	43.7	–	C=C(C)[C@H](CCC(C)(C)O)Cc1c(O)cc(OC)c2c1O[C@H](c1ccc(O)cc1O)[C@H](O)C2=O
71.1	100	–	C=C(C)[C@H](CC=C(C)C)Cc1c(O)cc(OC)c(C(=O)/C=C/c2ccc(O)cc2O)c1O
58.4	87.3	–	C=C(C)C(CC=C(C)C)Cc1c(O)cc(OC)c2c1O[C@H](c1ccc(O)cc1O)[C@H](O)C2=O (stereo partly drawn)
